Measurements published in BindingDB's records for patent US20230271937 (Nuevolution, 2023).

Target: T1, Isoform 2 of Nuclear receptor ROR-gamma (RORgT) (Homo sapiens, UniProt P51449)
T1 sequence (P51449 whole entry): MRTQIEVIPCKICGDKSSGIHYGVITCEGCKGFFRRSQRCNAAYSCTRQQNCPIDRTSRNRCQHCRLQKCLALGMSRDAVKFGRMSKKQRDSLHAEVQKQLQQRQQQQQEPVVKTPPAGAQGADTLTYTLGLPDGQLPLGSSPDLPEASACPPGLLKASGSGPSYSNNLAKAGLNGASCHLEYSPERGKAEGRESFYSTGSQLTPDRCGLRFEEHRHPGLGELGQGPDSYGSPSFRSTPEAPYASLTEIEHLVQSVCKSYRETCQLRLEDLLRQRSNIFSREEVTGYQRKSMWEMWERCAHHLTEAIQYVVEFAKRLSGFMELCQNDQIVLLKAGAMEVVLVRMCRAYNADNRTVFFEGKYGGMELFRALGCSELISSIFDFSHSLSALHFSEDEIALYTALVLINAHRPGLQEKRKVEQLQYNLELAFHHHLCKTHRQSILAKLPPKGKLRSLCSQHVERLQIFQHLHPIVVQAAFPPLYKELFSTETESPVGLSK
Assay: RORgamma Reporter Assay (Gal4)
Method: The HEK293 cell line is co-transfected transiently with two plasmids, one with the RORγ ligand-binding domain fused to galactose-responsive transcription factor (Gal4), and the other with the luciferase reporter gene and Gal binding sites (UAS). This construction allows to determine the RORγ activity in a cellular system through the measurement of luminescence. A suspension of RORγ reporter cells was dispensed into plates and cultured 2 h at 37° C. and 5% CO2. Media formulation consisted in DMEM/F-12 medium (Gibco) supplemented with 10% heat inactivated FBS (Sigma-Aldrich), non-essential aminoacids (Sigma-Aldrich), 2 mM Glutamax (Gibco) and 100 U/mL penicillin (Sigma-Aldrich). Dose-response curves with compounds were prepared in 100% DMSO and further diluted 100-fold in culture medium. […] The following formula was used: activity=100*[1−[x test compound/average vehicle] where the theoretical minimum reduction (0% reduction).

EC50: 700 nM
SMILES: CN(Cc1cccc(C#N)c1)c1ncnc(NC[C@H]2CCN(CC(N)=O)C[C@@H]2O)c1F [US20230271937, Example F2-08]
